{"source": "paper PMC9928118", "about": "“Funneling modulatory peptide design with generative models: Discovery and characterization of disruptors of calcineurin protein-protein interactions” (PLOS Computational Biology, 2023)", "tested_on": "GST-tagged Cn", "experiment": "PEPperPRINT peptide microarray binding assay with GST-tagged Cn", "procedure,_shortened": "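Qualitative binding: peptides printed on a PEPperPRINT microarray were incubated overnight at 4 °C with 1 mg/ml GST-tagged Cn, then detected with Alexa-Fluor 647 anti-GST antibody. Log fluorescence was baseline-corrected, averaged over duplicate spots, Z-normalized and averaged across five repeats.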", "key": {"[1]": {"details": "max over the spots listed under Location on chip"}, "[2]": {"details": "mean over the spots listed under Location on chip"}, "[3]": {"details": "GST-tagged Cn, max over the chip locations"}, "[4]": {"details": "GST-tagged Cn, mean over the chip locations"}, "[5]": {"details": "max over the chip locations listed for the peptide (two spots)"}, "[6]": {"details": "mean over the chip locations listed for the peptide (two spots)"}, "[7]": {"details": "GST-tagged Cn, max over the spots on the chip (two locations)"}, "[8]": {"details": "GST-tagged Cn, mean over the spots on the chip (two locations)"}, "[9]": {"details": "GST-tagged Cn, max over the spots named in Location on chip"}, "[10]": {"details": "GST-tagged Cn, mean over the spots named in Location on chip"}, "[11]": {"details": "GST-tagged Cn, max over the chip spots listed under Location on chip"}, "[12]": {"details": "GST-tagged Cn, mean over the chip spots listed under Location on chip"}}}
{"sequence": "STSSLPTFSFSSPVSH [SeqRBMlowT_1620]", "values": [{"measurement": "Chip Fluorescence (max)", "setting": "[1]", "value": 3.347}, {"measurement": "Chip Fluorescence (mean)", "setting": "[2]", "value": 0.3099}]}
{"sequence": "LNRIEIFVTFNFTRNS [Seqshuffled_5110]", "values": [{"measurement": "Chip Fluorescence (max)", "setting": "[1]", "value": 3.363}, {"measurement": "Chip Fluorescence (mean)", "setting": "[2]", "value": 0.477}]}
{"sequence": "KSKLIPKLSIQSPVHH [SeqRBMlowT_830]", "values": [{"measurement": "Chip Fluorescence (max)", "setting": "[3]", "value": -0.5565}, {"measurement": "Chip Fluorescence (mean)", "setting": "[4]", "value": -1.425}]}
{"sequence": "GSDDCPNVIVHIPHED [SeqRBM_9050]", "values": [{"measurement": "Chip Fluorescence (max)", "setting": "[5]", "value": 5.16}, {"measurement": "Chip Fluorescence (mean)", "setting": "[6]", "value": 0.1112}]}
{"sequence": "VQLFIHLPSSDDTGSY [SeqRBM_6875]", "values": [{"measurement": "Chip Fluorescence (max)", "setting": "[7]", "value": 1.006}, {"measurement": "Chip Fluorescence (mean)", "setting": "[8]", "value": -4.049}]}
{"sequence": "NSSGAPQFQINVLMGE [SeqRBM_9653]", "values": [{"measurement": "Chip Fluorescence (max)", "setting": "[3]", "value": -0.2717}, {"measurement": "Chip Fluorescence (mean)", "setting": "[4]", "value": -1.157}]}
{"sequence": "QGYKNPSAQFEPIGTK [SeqRBM_6874]", "values": [{"measurement": "Chip Fluorescence (max)", "setting": "[3]", "value": -0.3081}, {"measurement": "Chip Fluorescence (mean)", "setting": "[4]", "value": -1.163}]}
{"sequence": "RNPGTALLELRGHKAS [SeqRBMlowT_6384]", "values": [{"measurement": "Chip Fluorescence (max)", "setting": "[7]", "value": 1.174}, {"measurement": "Chip Fluorescence (mean)", "setting": "[8]", "value": 0.5723}]}
{"sequence": "TTSTNPQIRITDHEDE [Seqshuffled_9411]", "values": [{"measurement": "Chip Fluorescence (max)", "setting": "[7]", "value": 1.2864}, {"measurement": "Chip Fluorescence (mean)", "setting": "[8]", "value": -7.047}]}
{"sequence": "KQMAPPAINIDFAPTN [SeqRBMlowT_1821]", "values": [{"measurement": "Chip Fluorescence (max)", "setting": "[3]", "value": -0.4908}, {"measurement": "Chip Fluorescence (mean)", "setting": "[4]", "value": -3.72}]}
{"sequence": "RTPGTFPLTLKGHKKQ [SeqRBMlowT_6382]", "values": [{"measurement": "Chip Fluorescence (max)", "setting": "[9]", "value": 1.729}, {"measurement": "Chip Fluorescence (mean)", "setting": "[10]", "value": 0.4598}]}
{"sequence": "SFVHLPDFKVESLVRR [Seqshuffled_9544]", "values": [{"measurement": "Chip Fluorescence (max)", "setting": "[5]", "value": 4.191}, {"measurement": "Chip Fluorescence (mean)", "setting": "[6]", "value": 0.5898}]}
{"sequence": "RVLECPSIRITSISPT [SeqNFATC4_Homo_sapiens]", "values": [{"measurement": "Chip Fluorescence (max)", "setting": "[3]", "value": 0.1768}, {"measurement": "Chip Fluorescence (mean)", "setting": "[4]", "value": -0.8782}]}
{"sequence": "LKKTYLRREMHGCYNH [Seqrandom_9958]", "values": [{"measurement": "Chip Fluorescence (max)", "setting": "[9]", "value": 1.4154}, {"measurement": "Chip Fluorescence (mean)", "setting": "[10]", "value": 0.777}]}
{"sequence": "KAYIMLFFTFIDGGQK [SeqRBM_3979]", "values": [{"measurement": "Chip Fluorescence (max)", "setting": "[11]", "value": 0.8506}, {"measurement": "Chip Fluorescence (mean)", "setting": "[12]", "value": -0.3833}]}
{"sequence": "KSKAAPSIVIHIPEEA [SeqRBM_8661]", "values": [{"measurement": "Chip Fluorescence (max)", "setting": "[9]", "value": 1.362}, {"measurement": "Chip Fluorescence (mean)", "setting": "[10]", "value": 0.2601}]}
{"sequence": "VYWSNPQFIVKLEMVD [SeqRBM_6287]", "values": [{"measurement": "Chip Fluorescence (max)", "setting": "[1]", "value": 2.588}, {"measurement": "Chip Fluorescence (mean)", "setting": "[2]", "value": 1.027}]}
{"sequence": "LNLKIPEIDSSDMSAH [SeqFLNA_Erinaceus_europaeus]", "values": [{"measurement": "Chip Fluorescence (max)", "setting": "[7]", "value": 1.157}, {"measurement": "Chip Fluorescence (mean)", "setting": "[8]", "value": 0.3599}]}
{"sequence": "KAYMNPYVQFIDGGRR [SeqRBMlowT_9255]", "values": [{"measurement": "Chip Fluorescence (max)", "setting": "[7]", "value": 1.252}, {"measurement": "Chip Fluorescence (mean)", "setting": "[8]", "value": -0.2059}]}
{"sequence": "HVSSSPDIVITPTQHR [SeqRBMlowT_1399]", "values": [{"measurement": "Chip Fluorescence (max)", "setting": "[3]", "value": 0.3374}, {"measurement": "Chip Fluorescence (mean)", "setting": "[4]", "value": -0.4706}]}
{"sequence": "SPSIVANADLVVPYSE [SeqRBM_1237]", "values": [{"measurement": "Chip Fluorescence (max)", "setting": "[11]", "value": 0.5354}, {"measurement": "Chip Fluorescence (mean)", "setting": "[12]", "value": -0.2316}]}
{"sequence": "HVSSSPDITLTPTQHR [SeqRBMlowT_782]", "values": [{"measurement": "Chip Fluorescence (max)", "setting": "[3]", "value": -0.2367}, {"measurement": "Chip Fluorescence (mean)", "setting": "[4]", "value": -0.7632}]}
{"sequence": "KKMAPPCINIDFAPTN [SeqRBMlowT_322]", "values": [{"measurement": "Chip Fluorescence (max)", "setting": "[3]", "value": -0.3563}, {"measurement": "Chip Fluorescence (mean)", "setting": "[4]", "value": -3.542}]}
{"sequence": "KAYMCPFMQFQDGGRR [SeqRBMlowT_520]", "values": [{"measurement": "Chip Fluorescence (max)", "setting": "[11]", "value": 0.6726}, {"measurement": "Chip Fluorescence (mean)", "setting": "[12]", "value": 0.4462}]}
{"sequence": "AKMAPPAINIDFAPPN [SeqRBMlowT_7690]", "values": [{"measurement": "Chip Fluorescence (max)", "setting": "[9]", "value": 1.862}, {"measurement": "Chip Fluorescence (mean)", "setting": "[10]", "value": -0.1462}]}
{"sequence": "TFWTNPQYRLKIPDPD [SeqRBMlowT_280]", "values": [{"measurement": "Chip Fluorescence (max)", "setting": "[1]", "value": 2.677}, {"measurement": "Chip Fluorescence (mean)", "setting": "[2]", "value": 0.4774}]}
{"sequence": "NGPGTPTRQGQPLAPS [SeqRBMlowT_7792]", "values": [{"measurement": "Chip Fluorescence (max)", "setting": "[11]", "value": 0.749}, {"measurement": "Chip Fluorescence (mean)", "setting": "[12]", "value": -1.0469}]}
{"sequence": "TNSHNPQVDLKIPQVR [SeqRBMlowT_6893]", "values": [{"measurement": "Chip Fluorescence (max)", "setting": "[5]", "value": 5.271}, {"measurement": "Chip Fluorescence (mean)", "setting": "[6]", "value": 0.9753}]}
{"sequence": "STSSLPTFSFSSPASS [SeqRBMlowT_1605]", "values": [{"measurement": "Chip Fluorescence (max)", "setting": "[3]", "value": 0.1343}, {"measurement": "Chip Fluorescence (mean)", "setting": "[4]", "value": -0.9005}]}
{"sequence": "FSNKASKARRMEPLSI [SeqRBM_824]", "values": [{"measurement": "Chip Fluorescence (max)", "setting": "[7]", "value": 1.106}, {"measurement": "Chip Fluorescence (mean)", "setting": "[8]", "value": -0.01462}]}
{"sequence": "HVSSSPDVTLTPTQHR [SeqRBMlowT_4550]", "values": [{"measurement": "Chip Fluorescence (max)", "setting": "[11]", "value": 0.8955}, {"measurement": "Chip Fluorescence (mean)", "setting": "[12]", "value": -0.3348}]}
{"sequence": "GVHSCPALSVDRPQNQ [Seqshuffled_9565]", "values": [{"measurement": "Chip Fluorescence (max)", "setting": "[7]", "value": 1.31}, {"measurement": "Chip Fluorescence (mean)", "setting": "[8]", "value": -0.01046}]}
{"sequence": "HVSSSPDIALTPEQHD [SeqRBM_7666]", "values": [{"measurement": "Chip Fluorescence (max)", "setting": "[3]", "value": 0.08725}, {"measurement": "Chip Fluorescence (mean)", "setting": "[4]", "value": -0.9315}]}
{"sequence": "VSTDAPHSTRNDSGGP [SeqRBM_8532]", "values": [{"measurement": "Chip Fluorescence (max)", "setting": "[7]", "value": 0.9892}, {"measurement": "Chip Fluorescence (mean)", "setting": "[8]", "value": -0.732}]}
{"sequence": "ASMSPPCINIDYAPIS [SeqRBM_1607]", "values": [{"measurement": "Chip Fluorescence (max)", "setting": "[3]", "value": -0.1231}, {"measurement": "Chip Fluorescence (mean)", "setting": "[4]", "value": -1.5167}]}
{"sequence": "SVWENATVRFNFFPDN [Seqshuffled_9917]", "values": [{"measurement": "Chip Fluorescence (max)", "setting": "[1]", "value": 3.124}, {"measurement": "Chip Fluorescence (mean)", "setting": "[2]", "value": 1.438}]}
{"sequence": "TFWMNPQFKVKLEEVD [SeqRBMlowT_6848]", "values": [{"measurement": "Chip Fluorescence (max)", "setting": "[9]", "value": 1.645}, {"measurement": "Chip Fluorescence (mean)", "setting": "[10]", "value": 1.054}]}
{"sequence": "KKMAPPAINIDFAPTN [SeqRBMlowT_341]", "values": [{"measurement": "Chip Fluorescence (max)", "setting": "[9]", "value": 1.339}, {"measurement": "Chip Fluorescence (mean)", "setting": "[10]", "value": -0.05324}]}
